In ChEMBL document CHEMBL2380191, “Novel racemic tetrahydrocurcuminoid dihydropyrimidinone analogues as potent acetylcholinesterase inhibitors” (Bioorg Med Chem Lett, 2013):
pIC50: −log10 of the molar value.

Biological target: Acetylcholinesterase (Electrophorus electricus, UniProt O42275)
Assay: Inhibition of electric eel AChE using acetylthiocholine iodide as substrate after 15 mins by Ellman's method

Chain of Acetylcholinesterase (O42275 whole entry): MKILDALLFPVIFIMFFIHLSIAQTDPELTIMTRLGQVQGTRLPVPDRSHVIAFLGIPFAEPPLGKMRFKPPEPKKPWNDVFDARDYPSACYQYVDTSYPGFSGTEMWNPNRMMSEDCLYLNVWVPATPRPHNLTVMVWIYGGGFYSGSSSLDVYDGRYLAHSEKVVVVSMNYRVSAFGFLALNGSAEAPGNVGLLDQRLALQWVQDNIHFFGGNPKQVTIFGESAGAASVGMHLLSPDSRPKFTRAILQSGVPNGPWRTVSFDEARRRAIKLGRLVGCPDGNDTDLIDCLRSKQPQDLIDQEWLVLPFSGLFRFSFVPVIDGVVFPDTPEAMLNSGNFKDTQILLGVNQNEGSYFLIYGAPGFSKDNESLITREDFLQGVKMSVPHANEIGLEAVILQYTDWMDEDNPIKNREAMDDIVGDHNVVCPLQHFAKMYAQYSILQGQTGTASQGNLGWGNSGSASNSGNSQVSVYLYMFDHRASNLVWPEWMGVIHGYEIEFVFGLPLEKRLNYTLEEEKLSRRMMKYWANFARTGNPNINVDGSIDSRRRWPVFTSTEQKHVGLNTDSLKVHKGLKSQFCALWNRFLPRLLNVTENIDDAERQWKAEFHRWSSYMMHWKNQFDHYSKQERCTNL

Structure (SMILES)	pIC50
COc1cc(CCC(=O)C2=C(CCc3ccc(O)c(OC)c3)NC(=O)NC2c2ccccc2)ccc1O (racemic)	4.44
COc1cc(CCC(=O)C2=C(CCc3ccc(O)c(OC)c3)NC(=O)NC2c2ccc(O)cc2)ccc1O (racemic)	4.76
COc1ccc(C2NC(=O)NC(CCc3ccc(O)c(OC)c3)=C2C(=O)CCc2ccc(O)c(OC)c2)cc1 (racemic)	4.85
COc1cc(CCC(=O)C2=C(CCc3ccc(O)c(OC)c3)NC(=O)NC2c2ccc(O)c(OC)c2)ccc1O (racemic)	4.25
COc1cc(CCC(=O)C2=C(CCc3ccc(O)cc3)NC(=O)NC2c2ccccc2)ccc1O (racemic)	4.97
COc1cc(CCC2=C(C(=O)CCc3ccc(O)cc3)C(c3ccccc3)NC(=O)N2)ccc1O (racemic)	4.68
COc1ccc(C2NC(=O)NC(CCc3ccc(O)cc3)=C2C(=O)CCc2ccc(O)c(OC)c2)cc1 (racemic)	5.24
COc1ccc(C2NC(=O)NC(CCc3ccc(O)c(OC)c3)=C2C(=O)CCc2ccc(O)cc2)cc1 (racemic)	5.04
O=C1NC(CCc2ccc(O)cc2)=C(C(=O)CCc2ccc(O)cc2)C(c2ccccc2)N1 (racemic)	5.69
COc1ccc(C2NC(=O)NC(CCc3ccc(O)cc3)=C2C(=O)CCc2ccc(O)cc2)cc1 (racemic)	5.87
O=C(/C=C/c1ccc(O)cc1)CC(=O)/C=C/c1ccc(O)cc1 [BISDEMETHOXYCURCUMIN]	4.74
COc1cc(/C=C/C(O)=C/C(=O)/C=C/c2ccc(O)cc2)ccc1O [DEMETHOXYCURCUMIN]	4.42
O=C(CCc1ccc(O)cc1)CC(=O)CCc1ccc(O)cc1 [LETESTUIANIN C]	5.10
COc1cc(CCC(=O)CC(=O)CCc2ccc(O)c(OC)c2)ccc1O [TETRAHYDROCURCUMIN]	4.39
COc1cc(CCC(=O)CC(=O)CCc2ccc(O)cc2)ccc1O [TETRAHYDRODEMETHOXYCURCUMIN]	4.69
